As usually defined, the solubility is the concentration that dissolves in the medium under given conditions.

In brackets after ≈: the same amount, converted by molar mass.

Data on four molecules can be found in publication PMC8919384 (ACS Medicinal Chemistry Letters, 2022).

One series is described as follows: Solubility. Particulars: pH 1.2, simulated gastric fluid. The format is physicochemical.
The next series relates to melanoma-bearing mice. The note with it: combined with anti-CTLA-4 mAb; cited from earlier work.
In another series the test system is lung metastasis model. Particulars: cited from earlier work.
Series [1] deals with adult rat model of focal cerebral ischemia. Particulars: cited from earlier work.
The target of another series is T1, A1 AR (Homo sapiens, UniProt P30542).
T1 sequence (P30542 1-326): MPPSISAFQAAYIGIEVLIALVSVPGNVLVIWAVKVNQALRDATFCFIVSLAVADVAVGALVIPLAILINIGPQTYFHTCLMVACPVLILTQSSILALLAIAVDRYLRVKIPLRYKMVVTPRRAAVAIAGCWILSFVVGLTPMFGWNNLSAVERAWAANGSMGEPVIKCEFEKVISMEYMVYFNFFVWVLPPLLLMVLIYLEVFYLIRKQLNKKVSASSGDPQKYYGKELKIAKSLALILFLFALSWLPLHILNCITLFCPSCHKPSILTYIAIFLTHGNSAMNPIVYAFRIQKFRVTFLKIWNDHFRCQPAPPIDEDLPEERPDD
The note with it: binding Ki.

`Cn1cc(-c2cnc(N)n3nc(-c4ccco4)nc23)ccc1=O` [1a] yielded a solubility in “Solubility” of 1990 µg/mL (≈ 6.45 mM). Regarding `Nc1nc(NCCc2ccc(O)cc2)nc2nc(-c3ccco3)nn12` [ZM241385], the “tumor growth in melanoma-bearing mice” value with melanoma-bearing mice is on record as “remarkable delay in tumor growth”. Further, the “tumor growth in a lung metastasis model” value with lung metastasis model is “significantly inhibited tumor growth”. For the molecule `Nc1nc2c(cnn2CCc2ccccc2)c2nc(-c3ccco3)nn12` [SCH58261], the ischemic brain damage result in series [1] was “reduced ischemic brain damage”. Turning to `Cc1cnc(-c2nc3c(-c4ccc(=O)n(C)c4)cnc(N)n3n2)s1` [1d], the “selectivity for A1 AR over the A2A AR” value on A1 AR is given as “two-fold”.
